Assay results published in patent US4230719A, “Novel 2-[4-(3-methyl-2-thienyl)phenyl]propionic acid and pharmaceutically acceptable salt thereof and method for treating symptoms of inflammation and pain” (Toyama Chemical Co., Ltd., priority 1977, dated 1980).

Key:
[1] = in vivo; settings: rat, po
[2] = tested on: gastric mucosa and intestine; assay: Test for ulcerogenic action (i), single dose, fasted rats; assay type: in vivo; settings: for Gastric glandular score: 18 hours, score 0 (no lesion) to 4 (many large ulcers or perforation)
Method: (§1) (4) Test for ulcerogenic action
(§2) After 18 hours, the rats were killed by suffocation with chloroform and their stomachs were excised. After having been filled with 5 ml of 1% formalin to fix the gastric mucosa, each stomach was incised along the greater curvature to inspect grossly the extent of injury of the gastric mucosa. The extent of injury was scored as follows: 0, no lesion; 1, petechia or erosion; 2, 1-5 small ulcers; 3, many small ulcers; 4, many large ulcers or perforation. The intestinal injury was evaluated based on the incidence of erosion.

[3] = as above; assay type: in vivo; settings: rat, in vivo, po
Method: as §1, §2

[4] = tested on: Carrageenin-induced edema; assay: Carrageenin-induced edema; assay type: in vivo, rat (Donryu strain, male); settings: Rattus norvegicus, po, mean in 5 hours, read-out: Inhibitory percent of swelling; for inhibition in vivo at 1 mg/kg: 1 mg/kg p.o.; for inhibition in vivo at 5 mg/kg: 5 mg/kg p.o.
Method: (iii) Carrageenin-induced edema
Each of the 6 Donryu strain male rats per group (each weighing about 140 g), which had been fasted overnight, was orally loaded with 4 ml of water and, after 30 minutes, the test compound was orally administered thereto. Thirty minutes thereafter, a 1%(Wt/V) solution of carrageenin in physiological saline was subcutaneously injected into the subplantar region of the left hind paw. At a time interval of one hour, starting from the end of the first hour till the end of the fifth hour after injection of carrageenin, the paw volume was measured by means of a manometer and pressure transducer. By comparison with the percent increase in swelling of the control group of rats to which a 0.5%(V/V) solution of Tween 80 had been administered, the mean inhibitory percent in 5 hours of swelling was calculated by the following equation: [formula]

[5] = tested on: Adjuvant arthritis; assay: Adjuvant arthritis; assay type: in vivo, rat (Sprague-Dawley strain, male); settings: 1 mg/kg p.o./day, mean during one week
Method: A suspension containing 6 mg/ml of killed and dried Mycobacterium butyricum in liquid paraffin was subcutaneously injected into the subplantar region of the left hind paw of Sprague-Dawley strain male rats (weighing 180 to 200 g) in a proportion of 0.1 ml/rat. After 14 days, the rats having inflammatory paws of similar volumes were selected and the test compound was orally administered to the rats repeatedly at the rate shown in Table 4 during one week and the mean inhibitory percent of swelling during one week was determined.

[6] = tested on: gastric mucosa and intestine; assay: Test for ulcerogenic action (ii), three doses, rats on normal meal; assay type: in vivo, rat (Donryu strain, male); set-up: scale not given here
Method: (ii) In the same manner as in (i), the test compound was orally administered to each Donryu strain male rat (weighing about 180 g; 10 rats per group) which had received normal meal. The second dose was administered after 8 hours and the third dose after 16 hours from the second dose. Five hours after the last administration, the rats were treated in the same manner as in (i). The gastric mucosa injury and the intestinal injury were scored in the same manner as in (i).

[7] = tested on: pain threshold (brewer's yeast, hind paw); assay: Analgesic activity, Randall-Selitto method in rat; assay type: in vivo, rat (Wistar strain, male); settings: for Inhibition: 100% = pain threshold raised by 150 g; for ED50: po, rat, read-out: ED50
Method: (ii) Randall-Selitto method in rat
After one hour, the test compound was orally administered. One hour thereafter, the pain threshold value was measured four times at a time interval of one hour. The mean value of four values obtained was taken as the pain threshold value of each group of rats. The activity of the drug was assumed to be 100% when the pain threshold value was raised by 150 g.

[8] = tested on: phenylbenzoquinone writhing; assay: Analgesic activity, phenylbenzoquinone method in mouse; assay type: in vivo, mouse (ddY strain, male); settings: for Frequency of writhing, mean ± S.E.: during 10 minutes; for inhibition in vivo at 10 mg/kg / inhibition in vivo at 20 mg/kg / inhibition in vivo at 40 mg/kg: Mus musculus, 10 min, writhing; for inhibition in vivo at 10 mg/kg / inhibition in vivo at 20 mg/kg / inhibition in vivo at 40 mg/kg / ED50: po; for inhibition in vivo at 10 mg/kg / inhibition in vivo at 20 mg/kg: read-out: Inhibition; for ED50: mouse, read-out: ED50
Method: (i) Phenylbenzoquinone method in mouse
The test compound was orally administered to each ddY strain male mouse (weighing 22±2 g; 8 mice per group). […] The frequency of writhing during 10 minutes from 5-minutes after the injection of phenylbenzoquinone was measured and compared with that of a control group to which a 0.5% Tween 80 solution was administered. The percent inhibition was calculated by the following equation: [formula]

[9] = tested on: Vascular permeability; assay: Vascular permeability in mice (Whittle's method); assay type: in vivo, mouse (ddY strain, male); settings: for Inhibition: dye leakage; for ED30: po, mouse, read-out: ED30
Method: (i) Vascular permeability in mice (Whittle's method)
The test compound was orally administered to each ddY strain male mouse (weighing each about 20 g). After 20 minutes, 0.1 ml/10 g of a 4%(Wt/V) solution of Pontamine Sky Blue in physiological saline was intravenously injected and 10 minutes thereafter 0.1 ml/10 g of a 0.7%(V/V) solution of acetic acid in physiological saline was injected intraperitoneally. After 30 minutes, the mice were killed by suffocation with chloroform. After immediate laparotomy, the dye leaked into the peritoneal cavity was washed out with distilled water. The washings were made up with water to 30 ml and the absorbance at 620 mμ was measured. The amount of leaked dye per 20 g of mouse weight was compared.

[10] = tested on: Vascular permeability; assay: Vascular permeability in rat (Whittle's method); assay type: in vivo, rat (Wistar strain, male); settings: for ED30: po, rat, read-out: ED30
Method: (ii) Vascular permeability in rat (Whittle's method)
The test compound was orally administered to each Wistar strain male rat (weighing about 150 g) which had been fasted overnight. After 55 minutes, 0.5 ml of a 0.5% Evans Blue solution was intravenously injected. Five minutes thereafter, 0.2 ml/100 g of a 3%(V/V) acetic acid solution was intraperitoneally injected. After 60 minutes from the injection of the acetic acid solution, the rats were killed by suffocation with chloroform. After immediate laparotomy, the dye leaked into the peritoneal cavity was washed out with physiological saline. The washings were made up with the saline to 30 ml and the absorbance at 640 mμ was measured to examine the effect of the test compounds by comparing the amounts of leaked dye per rat with one another.

[11] = tested on: Glomerulonephritis; assay: Action on glomerulonephritis in rats; assay type: in vivo, rat (Wistar strain, male); settings: 10 mg/kg p.o./day
Source text: (ii) Action on glomerulonephritis in rats
Glomerulonephritis was induced in Wistar strain male rats (each weighing 180 to 200 g) by use of an anti-rat's kidney rabbit serum obtained from the serum of a rabbit sensitized with a homogenate of rat's kidney cortice. To the rat producing stable proteinuria was orally administered the test compound repeatedly at the rate shown in Table 12 for 2 weeks, and the inhibition of uric protein was examined.

| Structure (SMILES) | LD50 [1] [mg/kg] | Intestine erosion incidence ([2]; 10 mg/kg p.o.) | Gastric glandular score ([2]; 10 mg/kg p.o.) | Intestine erosion incidence ([2]; 30 mg/kg p.o.) | Gastric glandular score ([2]; 30 mg/kg p.o.) | Intestine erosion incidence ([2]; 100 mg/kg p.o.) | Gastric glandular score ([2]; 100 mg/kg p.o.) | TD50 at 18 h [3] [mg/kg] | inhibition in vivo at 1 mg/kg [4] [%] | inhibition in vivo at 5 mg/kg [4] [%] | Inhibitory percent of swelling [5] [%] | Score, intestine, mean ± S.E. ([6]; 5 mg/kg × 3 p.o.) | Score, stomach, mean ± S.E. ([6]; 5 mg/kg × 3 p.o.) | Score, intestine, mean ± S.E. ([6]; 15 mg/kg × 3 p.o.) | Score, stomach, mean ± S.E. ([6]; 15 mg/kg × 3 p.o.) | Inhibition ([7]; 1 mg/kg p.o.) [%] | Inhibition ([7]; 5 mg/kg p.o.) [%] | Inhibition ([7]; 25 mg/kg p.o.) [%] | ED50 [7] [mg/kg] | Frequency of writhing, mean ± S.E. ([8]; 10 mg/kg p.o.) | also measured |
| --- | --- | --- | --- | --- | --- | --- | --- | --- | --- | --- | --- | --- | --- | --- | --- | --- | --- | --- | --- | --- | --- |
| CC(C(=O)O)c1ccc(-c2cccs2)cc1 (stereo not shown) [Compound C2] | 115 | 1/7 | 1.11 ± 0.21 | 1/7 | 1.89 ± 0.24 | 6/7 | 3.61 ± 0.26 | 25 | 11.8 | 32.9 | 7.2 | 1.07 ± 0.30 | 1.21 ± 0.18 | 1.17 ± 0.21 | 2.33 ± 0.31 | 33.8 | 35.2 | 58.5 | 14.5 | 22.3 ± 1.9 | Death incidence ([2]; rat, in vivo): 3/7; Frequency of writhing, mean ± S.E. ([8]; 20 mg/kg p.o.): 14.6 ± 3.1; Frequency of writhing, mean ± S.E. ([8]; 40 mg/kg p.o.): 11.1 ± 2.4; inhibition in vivo at 10 mg/kg ([8]; 10 mg/kg p.o.): 5.5%; inhibition in vivo at 20 mg/kg ([8]; 20 mg/kg p.o.): 38.1%; inhibition in vivo at 40 mg/kg ([8]; 40 mg/kg p.o.): 53%; ED50 [8]: 33 mg/kg; Dye leakage (P.S.B.) mean ± S.E. ([9]; 5 mg/kg p.o.): 314.7 ± 31.3 μg/20g; Dye leakage (P.S.B.) mean ± S.E. ([9]; 10 mg/kg p.o.): 264.8 ± 21.8 μg/20g; Inhibition ([9]; 5 mg/kg p.o.): 1.9%; Inhibition ([9]; 10 mg/kg p.o.): 17.5%; ED30 [9]: 19.8 mg/kg; Inhibition ([10]; 1 mg/kg p.o.): 16.4%; Inhibition ([10]; 5 mg/kg p.o.): 47.3%; ED30 [10]: 2.1 mg/kg |
| CC(C(=O)O)c1ccc(-c2cccs2)c(Cl)c1 (stereo not shown) [Compound C3] | 270 | 0/7 | 1.18 ± 0.30 | 0/7 | 1.96 ± 0.42 | 4/7 | 3.39 ± 0.30 | 27 | 15.2 | 42 | 8.1 | 0.83 ± 0.21 | 1.67 ± 0.31 | 1.50 ± 0.38 | 2.36 ± 0.14 | 14.4 | 32.5 | 56.6 | 16.5 | 23.1 ± 3.5 | Frequency of writhing, mean ± S.E. ([8]; 20 mg/kg p.o.): 19.4 ± 3.7; Frequency of writhing, mean ± S.E. ([8]; 40 mg/kg p.o.): 12.4 ± 3.0; inhibition in vivo at 10 mg/kg ([8]; 10 mg/kg p.o.): 2.1%; inhibition in vivo at 20 mg/kg ([8]; 20 mg/kg p.o.): 17.8%; inhibition in vivo at 40 mg/kg ([8]; 40 mg/kg p.o.): 47.5%; ED50 [8]: 50 mg/kg; Dye leakage (P.S.B.) mean ± S.E. ([9]; 5 mg/kg p.o.): 289.3 ± 21.4 μg/20g; Dye leakage (P.S.B.) mean ± S.E. ([9]; 10 mg/kg p.o.): 254.2 ± 10.3 μg/20g; Dye leakage (P.S.B.) mean ± S.E. ([9]; 20 mg/kg p.o.): 226.9 ± 15.3 μg/20g; Inhibition ([9]; 5 mg/kg p.o.): 9.8%; Inhibition ([9]; 10 mg/kg p.o.): 20.8%; Inhibition ([9]; 20 mg/kg p.o.): 29.3%; ED30 [9]: 20.5 mg/kg; Inhibition ([10]; 1 mg/kg p.o.): 22.2%; Inhibition ([10]; 5 mg/kg p.o.): 44.6%; ED30 [10]: 1.7 mg/kg |
| CC(=O)OCC(=O)[C@@]1(O)CC[C@H]2[C@@H]3CCC4=CC(=O)CC[C@]4(C)[C@H]3[C@@H](O)C[C@@]21C [Hydrocortisone acetate] |  |  |  |  |  |  |  |  |  |  |  |  |  |  |  |  |  |  |  |  | Inhibition of uric protein ([11]; 7th day): 20.0%; Inhibition of uric protein ([11]; 14th day): 29.0% |
